We go through 3 compounds from patent publication US11260036B2, “[18F]-labelled lactate derivative as PET radiotracer” (GRANDIS, priority 2016, dated 2022).

One series concerns the target T1, rabbit muscle LDH (Oryctolagus cuniculus, UniProt P13491).
T1 construct: 10 IU of rabbit muscle LDH (Sigma); purchased Sigma; host or cells: rabbit muscle
Briefly: Lactate dehydrogenase assay (reduction of 3-fluoropyruvate). It is filed as biochemical. The settings on record: 10 IU rabbit muscle LDH, NADH 0.2 mM, 37° C., 24 h, HPLC-MS detection. As to the method: A potential reduction of 3-fluoropyruvate to 3-fluoro-2-hydroxypropionate by lactate dehydrogenase (LDH) was measured in vitro using a previously reported protocol (Goncalves et al., Tetrahedron: Asymmetry, 1996, 7, 1237-1240).
Briefly, 14.6 mg of nonradioactive 3-fluorpyruvate were dissolved in 4 mL of double distilled water containing 10 IU of rabbit muscle LDH (Sigma) and 5.3 IU of formate dehydrogenase (Sigma). The reaction was started by adding NADH to a final concentration of 0.2 mM and sodium formate to a final concentration of 40 mM. The final volume was adjusted to 5 mL with double distilled water. The reaction was carried out at 37° C. for 24 h under constant, gentle shaking at 120 rpm. Then, solution was spun through a 10 kDa filter to remove enzymes, and 3-fluoro-2-hydroxypropionate was detected by HPLC-MS using an Accela U(HPLC) equipped with a Luna Phenomenex 250*4.60 HPLC column and an ThermoScientific LTQ—ORBITRAP—XL fitted an electrospray ionization source working in negative mode.

The next series has as its system SiHa cells. Briefly: In vitro tracer uptake assay, SiHa. Type of series: cell-based, human. The settings on record: 6 min after delivery of 45 μCi/ml of the tracer. From the text: (§1) Cells and gene silencing. HeLa and SiHa human cervix squamous cell carcinoma and SDQ9 human laryngeal squamous cell carcinoma were from ATCC. Cells were routinely cultured in DMEM (Thermo Fischer) containing glucose (4.5 g/L), Glutamax and 10% FBS. MCT1-deficient and control SiHa cells were produced as previously described (De Saedeleer et al., Oncogene, 2014, 33, 4060-4068), using the following vectors from Open Biosystems: TRCN0000038340 (shMCT1-1) and TRCN0000038339 (shMCT1-2). Control shRNA (shCTR) was Addgene plasmid 1864.
(§2) In vitro tracer uptake assay. A modified version of the ^14C-Lactate uptake assay described by Draoui et al., (Draoui et al., Bioorg Med Chem, 2013, 21, 7107-7117) was used. Briefly, 250,000 cells were plated in flat-bottom 24 well plates (t=0). When cells were attached (t=6 h), medium was replaced by DMEM without glucose and glutamine, containing 10% dialyzed FBS and 10 mM of L-lactate, pH 7.0. Cells were then incubated overnight at 37° C., 5% CO2. On the day of experiment, (t=24 h), cells medium was removed and cells were briefly washed twice with a modified KREBS solution without glucose (HEPES 25 mM, NaCl 120 mM, KCl 4.8 mM, KH2PO4 1.2 mM, MgSO4 1.2 mM, CaCl2 2 mM). […] Cells were lysed with NaOH 0.1 N, and ^18F activity was measured in the cell lysate using a Wiper Gold γ-counter (Laboratory Technologies). Activity is expressed as % of initial dose. […]

The subject of the next series is HeLa cells. Briefly: In vitro tracer uptake assay, HeLa. It is filed as cell-based, human. The conditions noted are these: 6 min after delivery of 45 μCi/ml of the tracer.
Description: as §1, §2

The test system of a further series is SQD9 cells. Briefly: In vitro tracer uptake assay, SQD9. Type of series: cell-based, human. The settings on record: SQD9, 6 min after delivery of 45 μCi/ml of the tracer.
Description: as §1, §2

The next series relates to SiHa tumors. Briefly: In vivo tracer uptake assay (PET/CT), mice bearing SiHa-shCTR and SiHa-shMCT1 tumors. As to the method:
In vivo tracer uptake assay. All in vivo experiments were performed with approval of UCL Comité d'Ethique pour l'Expérimentation Animale (approval ID 2014/UCL/MD/014) according to national and European animal care regulations. To avoid inter-subject variability, 500,000 SiHa-shCTR and SiHa-shMCT1 cells in a HBSS:Matrigel 1:1 solution were respectively injected in the left and right flank of same 6.5 week-old male NMRI nude mice. In another model, 1,000,000 SQD9 cells in a HBSS:Matrigel 1:1 solution were injected on the back of same 6.5 week-old male NMRI nude mice. Experiments were performed on tumors of ˜10 mm in diameter, i.e., about 3 weeks tumor cell inoculation. For intravenous injection, MCT1 inhibitor AR-C155858 (Tocris) was dissolved in 0.9% NaCl with 10% (2-hydroxypropyl)-β-cyclodextrin at a concentration of 2.5 mg/ml (Vijay et al., Pharm Res, 2015, 32, 1894-1906). For intravenous injection, MCT1 inhibitor AZD3965 (Selleckchem) was first dissolved in pure ethanol at a concentration of 100 mg/ml, then diluted in 0.9% NaCl with 10% (2-hydroxypropyl)-β-cyclodextrin at a final concentration of 2.5 mg/ml. (±)-[^18F]-3-fluoro-2-hydroxypropionate (150-250 μCO was injected in the tail vein of the animals 10 min after the delivery of AR-C155858 (5 mg/Kg), AZD3965 (5 mg/Kg), or vehicle (70 μL). At indicated times, a whole body 10-min static PET imaging (small-animal Mosaic PET Scan system, Philips Medical Systems) directly followed by a 10 min transmission CT scan (NanoSPECT/CT Small Animal Imager, Bioscan; source: 370 MBq ^137Cs; X-Ray tube voltage: 55 kVp; number of projections: 180; exposure time 1000 ms) were performed on isoflurane-anesthetized mice kept at 35° C. PET images were corrected for attenuation and reconstructed using fully 3D iterative algorithm 3D-RAMLA in a 128×128×120 matrix, with a voxel size of 1 mm^3. CT images were reconstructed with a voxel size of 0.221×0.221×0.221 mm^3. 2D Regions of interest (ROIs) were manually delineated on PET images using the PMOD software version 3.5 (PMOD technologies Ltd). Tumor localization was determined on PET/CT fused images. Ribcage and skin were used as internal and external limits, respectively. Tracer uptake is expressed as standard uptake value (SUV) calculated on the mean value of voxels within the manually defined 3D volume of interest (VOI).

The subject of a further series is SQD9 tumors. Briefly: In vivo tracer uptake assay (PET/CT), mice bearing SQD9 tumors. The settings on record: IV 250 μCi, PET-CT. As to the method:
In vivo tracer uptake assay. All in vivo experiments were performed with approval of UCL Comité d'Ethique pour l'Expérimentation Animale (approval ID 2014/UCL/MD/014) according to national and European animal care regulations. To avoid inter-subject variability, 500,000 SiHa-shCTR and SiHa-shMCT1 cells in a HBSS:Matrigel 1:1 solution were respectively injected in the left and right flank of same 6.5 week-old male NMRI nude mice. In another model, 1,000,000 SQD9 cells in a HBSS:Matrigel 1:1 solution were injected on the back of same 6.5 week-old male NMRI nude mice. Experiments were performed on tumors of ˜10 mm in diameter, i.e., about 3 weeks tumor cell inoculation. For intravenous injection, MCT1 inhibitor AR-C155858 (Tocris) was dissolved in 0.9% NaCl with 10% (2-hydroxypropyl)-β-cyclodextrin at a concentration of 2.5 mg/ml (Vijay et al., Pharm Res, 2015, 32, 1894-1906). For intravenous injection, MCT1 inhibitor AZD3965 (Selleckchem) was first dissolved in pure ethanol at a concentration of 100 mg/ml, then diluted in 0.9% NaCl with 10% (2-hydroxypropyl)-β-cyclodextrin at a final concentration of 2.5 mg/ml. […] Tumor localization was determined on PET/CT fused images. […] Tracer uptake is expressed as standard uptake value (SUV) calculated on the mean value of voxels within the manually defined 3D volume of interest (VOI).

The next series has as its target T2, MCT1 (Homo sapiens, UniProt P53985).
T2 construct: the experiment was repeated using SQD9 human laryngeal squamous cell carcinoma cells in mice; endogenous in cells; host or cells: SQD9 xenograft tumours in NMRI nude mice
T2 sequence (P53985 1-500): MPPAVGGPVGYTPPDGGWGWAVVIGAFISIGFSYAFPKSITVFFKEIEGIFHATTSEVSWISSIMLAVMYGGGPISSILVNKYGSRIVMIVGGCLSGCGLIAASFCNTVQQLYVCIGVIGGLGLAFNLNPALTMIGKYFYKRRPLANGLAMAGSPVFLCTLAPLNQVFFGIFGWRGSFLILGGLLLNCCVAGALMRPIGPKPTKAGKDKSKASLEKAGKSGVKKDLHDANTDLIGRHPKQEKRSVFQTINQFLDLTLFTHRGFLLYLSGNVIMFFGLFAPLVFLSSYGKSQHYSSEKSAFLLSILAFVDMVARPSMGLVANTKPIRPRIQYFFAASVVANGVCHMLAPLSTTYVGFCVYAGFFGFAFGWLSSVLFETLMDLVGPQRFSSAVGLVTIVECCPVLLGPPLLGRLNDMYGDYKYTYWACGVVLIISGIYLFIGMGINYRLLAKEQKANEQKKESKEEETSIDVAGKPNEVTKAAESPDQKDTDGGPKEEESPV
T2 sequence (P35613 140-385 partner limits assumed): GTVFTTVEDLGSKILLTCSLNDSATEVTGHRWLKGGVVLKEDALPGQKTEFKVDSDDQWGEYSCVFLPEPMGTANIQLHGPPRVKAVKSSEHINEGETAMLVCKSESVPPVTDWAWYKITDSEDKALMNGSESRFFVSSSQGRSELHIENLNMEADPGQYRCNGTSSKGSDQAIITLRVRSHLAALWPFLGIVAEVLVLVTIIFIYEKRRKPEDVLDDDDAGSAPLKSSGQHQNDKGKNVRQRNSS
Briefly: In vivo inhibition of tracer uptake by MCT1 inhibitors, SQD9 tumor-bearing mice (PET/CT). The conditions noted are these: 5 mg/Kg IV 10 min before tracer, images 30 min after tracer; SQD9 tumors, liver.

3-fluoropyruvate: the “reduction of 3-fluoropyruvate to 3-fluoro-2-hydroxypropionate by LDH” value at rabbit muscle LDH was “can be reduced to 3-fluoralacate by lactate dehydrogenase (LDH)”.

Turning to `O=C(O)C(O)C[18F]` (racemic) [(±)-[^18F]-3-fluoro-2-hydroxypropionate, [^18F]-3-fluoro-2-hydroxypropionic acid], the results for the “intracellular 18F dose” value in the series with SiHa cells, with HeLa cells and in the series with SQD9 cells were ~0.1 % of the initial dose, ~0.1 % of the initial dose and ~0.3 % of the initial dose, respectively. Besides, the “bone labeling indicating defluorination” value in the series with SiHa tumors (30 min after tracer injection) was “no detectable bone labeling”; with SiHa tumors (60 min after tracer injection) it was “spinal and joint labeling was detected, indicating that some defluorination had occurred”. The “discrimination of SiHa-shCTR and SiHa-shMCT1 tumors by the tracer” value in the series on SiHa tumors (30 min after tracer injection) is “no apparent discrimination of SiHa-shCTR and SiHa-shMCT1”. The “time of best tumor contrast after tracer injection” value in the series on SiHa tumors (IV 150-250 μCi, PET/CT) stood at 30 min. The “labeling of other organs (tracer distribution)” value in the series on SiHa tumors (IV 150-250 μCi, PET/CT, 30 min after tracer injection) was “the gut and the liver, were also labeled”. For the same compound, the “route of tracer clearance” value in the series with SiHa tumors (bladder labeling before and after systemic MCT1 inhibition) is recorded as “urine is the preferred route”. Moreover, the “tracer uptake by SQD9 tumors” value in the series on SQD9 tumors is “the tumors captured and accumulated the tracer”.

`Cc1[nH]nc(C(F)(F)F)c1Cc1sc2c(c1C(=O)N1C[C@](C)(O)CO1)c(=O)n(C)c(=O)n2C(C)C` [AZD3965]: the “change in tracer uptake (SUV) after MCT1 inhibitor” value at MCT1 was “highly significant decrease in tracer uptake in the tumors and liver”.
